pEC50: −log10 of the molar value.
Columns and labels:
[1] = NOVARTIS: Cytotoxicity against human hepatocellular carcinoma cell line (Huh7); format: toxicity, cell-based, Huh-7; conditions: Huh7 cells (hepatocellular carcinoma cell line)
Plasmodium falciparum [2] = assay: NOVARTIS: Inhibition of Plasmodium falciparum W2 (drug-resistant) proliferation in erythrocyte-based infection assay; format: functional, organism-based; conditions: for pEC50: Plasmodium falciparum, W2, read-out: EC50
Plasmodium falciparum [3] = assay: NOVARTIS: Inhibition of Plasmodium falciparum 3D7 (drug-susceptible) proliferation in erythrocyte-based infection assay; format: functional, organism-based; conditions: Plasmodium falciparum, 3D7

SMILES	CC50 [1] [nM]	pEC50 (Plasmodium falciparum [2])	pEC50 (Plasmodium falciparum [3])	EC50 (Plasmodium falciparum [2])
COc1ccc(-c2nc(-c3ccc4c(c3)-c3cc(-c5[nH]c(-c6ccc(OC)cc6)nc5-c5ccccc5)ccc3C4=O)c(-c3ccccc3)[nH]2)cc1	94500	5.43	5.14	
CC(=O)N(C1=C(N2CCCC2)C(=O)c2ccccc2C1=O)c1cccc(F)c1	29000	6.49	6.39	
O=C1NN=C(CC(=O)N2CC[C@@H](c3ccccc3)[C@H](O)C2)C2C=CC=CC12 (stereo not given in full)	> 10000	< 5.80	< 6.07	
CC(C)(C)CC(C)(C)Nc1c(-c2ccccc2OC(=O)c2ccccc2)nc2ccccn12	> 1260	7.57	5.97	
CC(=O)N(C1=C(N2CCCCC2)C(=O)c2ccccc2C1=O)c1ccc(F)cc1	33300	7.46	6.81	
Brc1ccc(Nc2nc3ccccc3nc2Nc2ccc(Br)cc2)cc1	20600	6.07	6.09	
COc1cc(C(=O)Nc2ccc3nc4n(c(=O)c3c2)CCCCC4)cc(OC)c1OC	> 10000	5.73	< 6.23	
COc1ccc(C2CC(c3cccs3)=NN2C(=O)CSc2nnc(CNC(=O)c3cccs3)n2-c2cc(C)ccc2C)cc1 (stereo not given)	> 100000	5.94	< 5.07	
CCCC1=NN(c2nc3ccccc3s2)C(=O)C1	> 10000	< 6.19	< 5.90	
FC(F)(F)c1cccc(-c2nc3c(s2)CN(C2CCCC2)CC3)c1	73000	5.53	5.27	
COc1ccc(-c2cc3c(nn2)-c2ccccc2C3=O)cc1	65800	5.79	5.42	
COc1ccc(/C=C(\NC(=O)c2ccccc2Br)C(=O)N2CC3CC(C2)c2cccc(=O)n2C3)cc1OC (stereo not given)	> 10000	< 5.90	< 6.12	
CCNc1nc(NC(C)(C)C)nc(N2CCCC2)n1	> 100000	6.10	5.84	
CC(C)(C)C1=NN(CC(=O)Nc2ccc3c(c2)OCO3)C(=O)c2cc3ccccc3n2C1	9810	5.50	< 4.90	
CSCCN1CCc2ccc3[nH]cc(-c4cccc(Cl)c4)c3c2C1	> 10000	6.65	6.97	
OP1(O)=NP(O)(O)=NP(O)(O)=NP(O)(O)=N1	> 10000	< 5.90	6.09	
CN1CCN(Nc2ccnc3cc4ccccc4cc23)CC1	> 10000	6.61	6.98	
CCN(CC)c1cc(-c2ccccn2)nc(-c2ccccn2)n1	> 10000	6.38	6.24	

SMILES	CC50 [1] [nM]	pEC50 (Plasmodium falciparum [2])	pEC50 (Plasmodium falciparum [3])	EC50 (Plasmodium falciparum [2])
Nc1nc(N)nc(C(c2ccccc2)c2ccccc2)n1	> 13200	< 5.90	5.96	
CC(C)(C)CC(C)(C)Nc1c(-c2ccccc2OC(=O)c2ccc(Cl)c(Cl)c2)nc2ccccn12	> 10000	7.14	6.04	
OC(CN1CCOCC1)Cn1c2ccc(Br)cc2c2cc(Br)ccc21 (stereo not given)	47400	6.36	6.00	
CN1CCN(c2c3c(c(C#N)c4nc5ccccc5n24)CCC3)CC1	> 100000	< 5.19	5.93	
c1cncc(-c2ncc(-c3cnccn3)c(-c3cccnc3)n2)c1	> 10000	< 6.43	< 5.90	
Cc1cccc(NS(=O)(=O)c2ccc3[nH]c(=O)ccc3c2)c1C	81800	6.08	< 4.90	
CCSc1sc2sccc2[n+]1CC	> 8580	6.08	6.03	
CCOC(=O)c1c(N=Cc2cccc(OC)c2O)sc2c1CCN(C)C2	> 100000	6.13	< 4.90	
Fc1ccccc1Nc1nc(NCc2ccccc2)c2ccccc2n1	8860	6.04	6.33	
COc1ccc(C2CC(=O)C3=C(C2)NC(C)=C(C(=O)OC(C)C)C3c2ccc(F)cc2)cc1 (stereo not given)	> 100000	7.64	7.08	
CCCn1c(=N)c(C(=O)NC2CCCCC2)cc2c(=O)n3cccc(C)c3nc21	> 100000	5.89	6.34	
O=C(/C=C/c1ccccc1)NNC(=O)c1cccnc1	> 9450	< 6.12	< 5.90	
CN(c1ccc(Cl)cc1)S(=O)(=O)c1ccc2[nH]cc(C(=O)NCCC3=CCCCC3)c(=O)c2c1	> 10000	< 6.04	< 5.90	
Cc1ccc2c(c1)N=C(c1ccc([N+](=O)[O-])cc1)CO2	> 100000	< 4.90	< 5.89	
CC(C)(C)c1cc(CCC(=O)Nc2c3c(nc4ccccc24)N(c2cccc(Cl)c2)CC3)cc(C(C)(C)C)c1O	> 100000		5.18	No fit
CCOC(=O)c1c(Cl)nnc(-c2ccccc2)c1-c1ccccc1	> 10000	< 5.84	6.10	
C/C=C/C(C(=O)NCCCC)N1C(=O)c2cc(NC(C)=O)ccc2NC(=O)[C@@H]1CCC(=O)O (stereo not given in full)	442	7.30	< 5.82	

Source: ChEMBL document CHEMBL1156829 (Proc Natl Acad Sci U S A, 2008)
